Measurements from patent US20170064954A1, “HERBICIDAL COMPOSITIONS CONTAINING 4-AMINO-3-CHLORO-6-(4-CHLORO-2-FLUORO-3-METHOXYPHENYL)PYRIDINE-2-CARBOXYLIC ACID OR A DERIVATIVE THEREOF, A TRIAZOLOPYRIMIDINE SULFONAMIDE HERBICIDE OR A DERIVATIVE THEREOF, AND A CELL MEMBRANE DISRUPTOR HERBICIDE OR A DERIVATIVE THEREOF” (Dow AgroSciences LLC, priority 2015, published 2017).
Where “and” joins values, the source holds several entries; their conditions need not be identical. Equal entries are not always repeated.

Columns and labels:
Test in all cases: Field trial, post-emergence foliar application, visually rated % weed control
Format in all cases: in vivo
[1] = test system: Conyza sumatrensis (Guernsey fleabane, ERISU)
Source text: (§1) Treatments consisted of the methyl ester of 4-amino-3-chloro-6-(4-chloro-2-fluoro-3-methoxyphenyl)pyridine-2-carboxylic acid (Cmpd 1, halauxifen-methyl) and diclosulam in combination as GF-3220. The form of compound of formula (I) was applied on an acid equivalent basis, and diclosulam was applied on an active ingredient basis. Glufosinate-ammonium salt was applied as various commercial formulations containing 480 grams acid equivalent per liter (g ae/L). Saflufenacil was applied as a commercial formulation containing 700 grams per kilogram (g/kg). Paraquat was applied as a commercial formulation containing 200 g/L.
(§2) Field trials were conducted under standard field conditions. Plot sizes varied from 2-4 meters (m) wide by 2-5 m long. Treatments were applied with small plot backpack sprayers, using pressurized carbon dioxide (CO2) as propellant. Pressure varied from 22-40 pounds per square inch (PSI), with spray tips typically of a Flat Fan type applying water diluent at 100-150 liters per hectare (L/ha). Boom sizes varied from 2-4 m in width. Weed sizes varied, but all treatments were applied as post-emergence treatments to weeds from 2 leaf to 2 tiller growth stages varying from 2-15 inches in height. No additional adjuvant was mixed with the treatments applied in the field.
(§3) Results in Tables 1 to 7 are field trial results for foliar applied compositions. The values reported are percent (%) control visually rated. The predicted percent (%) weed control was determined using Colby's equation. • The compositions tested, application rates employed, plant species tested, and results are given in Tables 1 to 7. • The following abbreviations are used in Tables 1 to 7: • ERISS=Conyza species (fleabane, ERISS) • ERISU=Conyza sumatrensis (Guernsey fleabane) • EPHHL=Euphorbia heterophylla L. (wild poinsettia) • IAQGR=Ipomoea grandifolia (Corda-de-viola) • ERIBO=Conyza bonariensis (fleabane) • g ae/ha=grams acid equivalent per hectare • g ai/ha=grams active ingredient per hectare • Mean % weed control=observed value of percent (%) control rated visually • Predicted mean % weed control=expected value of percent (%) control as calculated by Colby's equation • Cmpd 1=methyl 4-amino-3-chloro-6-(4-chloro-2-fluoro-3-methoxyphenyl)pyridine-2-carboxylate, halauxifen-methyl, or ARYLEX®

[2] = test system: Conyza species (fleabane, ERISS)
Source text: as §1, §2, §3

[3] = test system: Ipomoea grandifolia (Corda-de-viola, IAQGR); settings: Table 5, IAQGR, Paraquat 300 g ai/ha
Source text: as §1, §2, §3

[4] = test system: Conyza bonariensis (fleabane, ERIBO); settings: Table 7, ERIBO, 21DAA, Paraquat 200 g ai/ha
Source text: as §1, §2, §3

[5] = test system: Euphorbia heterophylla L. (wild poinsettia, EPHHL); settings: Table 4, EPHHL
Source text: as §1, §2, §3

CP(=O)(O)CCC(N)C(=O)O (stereo not drawn) [Glufosinate ammonium]
Mean % weed control ([1]; Table 1, ERISU, 17DAA, Glufosinate ammonium 366 g ai/ha): 58.75% and 71.25%
Mean % weed control ([1]; Table 1, ERISU, 28DAA, Glufosinate ammonium 366 g ai/ha): 71.25%
Mean % weed control ([1]; Table 1, ERISU, 43DAA, Glufosinate ammonium 366 g ai/ha): 78.75%

C[n+]1ccc(-c2cc[n+](C)cc2)cc1 [Paraquat, 1,1′-dimethyl-4,4′-bipyridinediium]
Mean % weed control ([2]; Table 3, ERISS, 17DAA, Paraquat 400 g ai/ha): 32.5% and 52.5%
Mean % weed control ([2]; Table 3, ERISS, 28DAA, Paraquat 400 g ai/ha): 52.5% and 55%
Mean % weed control ([2]; Table 3, ERISS, 43DAA, Paraquat 400 g ai/ha): 60% and 65%
Mean % weed control ([3]; 14DAA): 54.3%
Mean % weed control ([3]; 21DAA): 45%
Mean % weed control ([3]; 30DAA): 39.8%
Mean % weed control ([1]; Table 6, ERISU, 13DAA, Paraquat 100 g ai/ha): 26.3%
Mean % weed control ([1]; Table 6, ERISU, 13DAA, Paraquat 200 g ai/ha): 40%
Mean % weed control ([1]; Table 6, ERISU, 22DAA, Paraquat 100 g ai/ha): 41.3% and 41.1%
Mean % weed control ([1]; Table 6, ERISU, 22DAA, Paraquat 200 g ai/ha): 56.3%
Mean % weed control ([1]; Table 6, ERISU, 28DAA, Paraquat 100 g ai/ha): 47.5%
Mean % weed control ([1]; Table 6, ERISU, 28DAA, Paraquat 200 g ai/ha): 61.3%
Mean % weed control [4]: 28.3%
Mean % weed control ([5]; 14DAA, Paraquat 300 g ai/ha): 81.8%
Mean % weed control ([5]; 21DAA, Paraquat 100 g ai/ha): 56%
Mean % weed control ([5]; 21DAA, Paraquat 300 g ai/ha): 82.8%
Mean % weed control ([5]; 30DAA, Paraquat 100 g ai/ha): 48.3%
Mean % weed control ([5]; 30DAA, Paraquat 300 g ai/ha): 81.8%

CC(C)N(C)S(=O)(=O)NC(=O)c1cc(-n2c(=O)cc(C(F)(F)F)n(C)c2=O)c(F)cc1Cl [Saflufenacil, 2-chloro-5-[3,6-dihydro-3-methyl-2,6-dioxo-4-(trifluoromethyl)-1(2H)-pyrimidinyl]-4-fluoro-N-[[methyl(1-methylethyl)amino]sulfonyl]benzamide]
Mean % weed control ([2]; Table 2, ERISS, 17DAA, Saflufenacil 49 g ai/ha): 52.5% and 66.3%
Mean % weed control ([2]; Table 2, ERISS, 28DAA, Saflufenacil 49 g ai/ha): 66.3%
Mean % weed control ([2]; Table 2, ERISS, 43DAA, Saflufenacil 49 g ai/ha): 77.5%
